Data: ChEMBL document CHEMBL5344425, “Discovery of 5-(Pyrimidin-2-ylamino)-1H-indole-2-carboxamide Derivatives as Nur77 Modulators with Selective and Potent Activity Against Triple-Negative Breast Cancer” (J Med Chem, 2023)
Activity calls are given as the source filed them. The rule behind the calls is not given here.

What was measured:
[1] = test system: T47D; assay: Antiproliferative activity against human T47D cells assessed as inhibition of cell growth measured after 24 hrs by MTT assay; assay type: functional, cell-based
[2] = test system: MDA-MB-231; assay: Induction of apoptosis in human MDA-MB-231 cells assessed as proportion of late apoptotic cells at 0.63 uM measured after 5 hrs by AnnexinV-FITC/PI staining based flow cytometry (reference value: 2.55%); assay type: functional
[3] = Toxicity in BALB/c mouse xenografted with human MDA-MB-231 cells assessed as morphological changes in spleen at 10 mg/kg, ip qd for 16 days by Hematoxylin-Eosin staining based analysis; assay type: organism-based; conditions: in vivo, 384 h, time 16 day
[4] = test system: MDA-MB-231; assay: Induction of apoptosis in human MDA-MB-231 cells transfected with ctr siRNA assessed as late apoptotic cells at 1 uM measured after 6 hrs by AnnexinV-FITC/PI staining based flow cytometry (reference value: 3.97%); assay type: functional
[5] = test system: MDA-MB-231; assay: Induction of apoptosis in human MDA-MB-231 cells assessed as proportion of late apoptotic cells at 0.32 uM measured after 5 hrs by AnnexinV-FITC/PI staining based flow cytometry (reference value: 2.55%); assay type: functional
[6] = test system: MDA-MB-231; assay: Induction of apoptosis in human MDA-MB-231 cells assessed as PARP cleavage at 2 uM by western blot analysis; assay type: functional, cell-based; conditions: time 1-5 hrs, TDE = time-dependent effect
[7] = test system: MDA-MB-231; assay: Induction of apoptosis in human MDA-MB-231 cells assessed as proportion of late apoptotic cells at 1.25 uM measured after 5 hrs by AnnexinV-FITC/PI staining based flow cytometry (reference value: 2.55%); assay type: functional
[8] = test system: HCC1806; assay: Antiproliferative activity against human HCC1806 cells assessed as inhibition of cell growth measured after 24 hrs by MTT assay; assay type: functional, cell-based; conditions: HCC1806, 24 h
[9] = target: T1, Nuclear receptor subfamily 4immunitygroup A member 1 (Homo sapiens, UniProt P22736); assay: Modulation of Nur77 in human MDA-MB-231 cells assessed as increase in TP53 phosphorylation at Ser392 residue at 0.31 to 5 uM measured after 6 hrs by western blot analysis; assay type: cell-based; conditions: dose 0.31-5 µM
[10] = test system: MDA-MB-231; assay: Induction of apoptosis in human MDA-MB-231 cells assessed as proportion of early apoptotic cells at 2.5 uM measured after 5 hrs by AnnexinV-FITC/PI staining based flow cytometry (reference value: 3.35%); assay type: functional
[11] = Toxicity in Zebra fish AB embryo assessed as mortality rate at 1.25 uM measured after 24 to 72 hrs; design: species or system Danio rerio; conditions: zebrafish, 1.25 µM, time 24-72 hrs
[12] = target: T2, Retinoic acid receptor RXR-alpha (Homo sapiens) (UniProt P19793); assay: Antagonist activity at RXRalpha (unknown origin) transfected in HEK293T cells cotransfected with pG5-Luc assessed as inhibition of receptor transcriptional activity at 2 uM measured after 12 hrs by luciferase reporter gene assay; assay type: cell-based
T2 sequence (whole entry): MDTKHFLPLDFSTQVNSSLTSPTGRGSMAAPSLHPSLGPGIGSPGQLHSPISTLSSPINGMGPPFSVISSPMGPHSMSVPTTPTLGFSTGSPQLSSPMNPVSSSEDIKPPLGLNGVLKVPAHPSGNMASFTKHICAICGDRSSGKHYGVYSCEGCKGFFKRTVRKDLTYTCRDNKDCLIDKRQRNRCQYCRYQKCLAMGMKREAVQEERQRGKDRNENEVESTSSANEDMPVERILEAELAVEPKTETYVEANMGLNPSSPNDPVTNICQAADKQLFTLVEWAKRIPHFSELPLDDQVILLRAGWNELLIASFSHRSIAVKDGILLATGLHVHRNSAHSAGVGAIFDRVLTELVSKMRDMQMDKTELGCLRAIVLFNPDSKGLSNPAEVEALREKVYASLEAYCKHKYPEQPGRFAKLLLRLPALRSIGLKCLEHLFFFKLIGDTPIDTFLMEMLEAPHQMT

[13] = test system: MDA-MB-231; assay: Induction of apoptosis in human MDA-MB-231 cells transfected with Nur77 siRNA assessed as PARP cleavage at 0.5 to 2 uM measured after 6 hrs by western blot analysis; assay type: functional, cell-based; conditions: dose 0.5-2 µM
[14] = target: T1, Nuclear receptor subfamily 4immunitygroup A member 1; assay: Antagonist activity at Nur77 ligand binding domain (unknown origin) transfected in HEK293T cells cotransfected with pG5-Luc assessed as inhibition of receptor transcriptional activity at 1 uM measured after 12 hrs by luciferase reporter gene assay; assay type: cell-based; conditions: filed as antagonist
[15] = Selectivity index, ratio of IC50 for cytotoxicity against human MCF-10A cells to IC50 for antiproliferative activity against human MCF7 cells; assay type: toxicity, cell-based; conditions: MCF-10A cells versus MCF7 cells, read-out: Ratio IC50
[16] = test system: MDA-MB-231; assay: Induction of apoptosis in human MDA-MB-231 cells assessed as PARP cleavage at 2.5 uM pretreated with PI3K and autophagy inhibitor, Wortmannin for 4 hrs followed by compound addition and measured after 6 hrs by western blot analysis; assay type: functional, cell-based
[17] = test system: MDA-MB-231; assay: Induction of apoptosis in human MDA-MB-231 cells assessed as PARP cleavage measured after 6 hrs by western blot analysis; assay type: functional, cell-based; conditions: dose 0.5-5 µM
[18] = target: T1, Nuclear receptor subfamily 4immunitygroup A member 1; assay: Binding affinity to His-tagged Nur77 ligand binding domain (unknown origin) at 10 uM by surface plasmon resonance assay; conditions: filed as modulator
[19] = test system: HT-29; assay: Antiproliferative activity against human HT-29 cells assessed as inhibition of cell growth measured after 24 hrs by MTT assay; assay type: functional, cell-based; conditions: HT-29, 24 h
[20] = target: T1, Nuclear receptor subfamily 4immunitygroup A member 1; assay: Modulation of Nur77 in human MDA-MB-231 cells assessed as increase in TP53 phosphorylation at Ser15 residue at 0.31 to 5 uM measured after 6 hrs by western blot analysis; assay type: cell-based; conditions: filed as modulator, dose 0.31-5 µM
[21] = test system: Nuclear receptor subfamily 4immunitygroup A member 1 (Homo sapiens), P22736 [UNDEFINED MUTATION]; assay: Induction of degradation of Myc-tagged Nur77 R184A mutant (unknown origin) transfected in human MDA-MB-231 cells at 2 to 5 uM measured after 6 hrs by western blot analysis; assay type: cell-based; conditions: dose 2-5 µM
[22] = target: T1, Nuclear receptor subfamily 4immunitygroup A member 1; assay: Binding affinity to wild type Nur77 ligand binding domain (unknown origin) assessed as decrease in fluorescence intensity incubated for 30 secs by fluorescence spectrophotometric analysis
[23] = test system: MDA-MB-231; assay: Induction of apoptosis in human MDA-MB-231 cells assessed as proportion of late apoptotic cells at 5 uM measured after 5 hrs by AnnexinV-FITC/PI staining based flow cytometry (reference value: 2.55%); assay type: functional
[24] = test system: SW-620; assay: Antiproliferative activity against human SW620 cells assessed as inhibition of cell growth measured after 24 hrs by MTT assay; assay type: functional, cell-based; conditions: SW-620, 24 h
[25] = test system: MDA-MB-231; assay: Induction of apoptosis in human MDA-MB-231 cells assessed as proportion of early apoptotic cells at 0.32 uM measured after 5 hrs by AnnexinV-FITC/PI staining based flow cytometry (reference value: 3.35%); assay type: functional
[26] = test system: MDA-MB-231; assay: Induction of apoptosis in human MDA-MB-231 cells assessed as increase in cleaved caspase-3 expression at 1 uM measured after 6 hrs by confocal microscopy; assay type: functional, cell-based
[27] = test system: MDA-MB-231; assay: Induction of apoptosis in human MDA-MB-231 cells transfected with Nur77 siRNA assessed as early apoptotic cells at 1 uM measured after 6 hrs by AnnexinV-FITC/PI staining based flow cytometry (reference value: 1.88%); assay type: functional

T1 sequence (P22736 whole entry): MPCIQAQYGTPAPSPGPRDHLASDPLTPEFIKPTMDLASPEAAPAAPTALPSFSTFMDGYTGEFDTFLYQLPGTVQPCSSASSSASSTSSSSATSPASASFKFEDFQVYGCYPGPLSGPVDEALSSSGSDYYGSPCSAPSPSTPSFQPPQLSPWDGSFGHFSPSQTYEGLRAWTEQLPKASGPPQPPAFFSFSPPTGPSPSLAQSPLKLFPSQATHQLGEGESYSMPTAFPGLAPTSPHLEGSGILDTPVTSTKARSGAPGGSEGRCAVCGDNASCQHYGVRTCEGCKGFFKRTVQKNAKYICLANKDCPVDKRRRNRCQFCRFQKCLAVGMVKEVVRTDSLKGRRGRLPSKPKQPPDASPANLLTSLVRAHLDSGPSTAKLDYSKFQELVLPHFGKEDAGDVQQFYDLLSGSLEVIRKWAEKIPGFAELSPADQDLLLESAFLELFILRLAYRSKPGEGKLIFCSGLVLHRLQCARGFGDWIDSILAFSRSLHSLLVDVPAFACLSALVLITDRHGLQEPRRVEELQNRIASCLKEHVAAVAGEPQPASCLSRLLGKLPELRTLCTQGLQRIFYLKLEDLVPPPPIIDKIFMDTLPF
Chain of Nuclear receptor subfamily 4immunitygroup A member 1 (Homo sapiens), P22736 [UNDEFINED MUTATION] (P22736 whole entry, looked up, stated change not applied, the tested form may be a part): as the sequence (P22736 whole entry) above

**Q.** With CCN(CC)CCCNC(=O)c1cc2cc(Nc3nccc(-c4sc(NC)nc4C)n3)ccc2[nH]1 as the compound, how does the IC50 [1] read?
**A.** 1050 nM

**Q.** What about the Activity [2] of the same compound?
**A.** 5.16%

**Q.** What about the Activity [3] of the same compound?
**A.** Non-Toxic

**Q.** What about the Activity [4] of the same compound?
**A.** 8.23%

**Q.** What about the Activity [5] of the same compound?
**A.** 5.29%

**Q.** And the Activity [6]?
**A.** Tde

**Q.** What about the Activity [7] of the same compound?
**A.** 4.06%

**Q.** And the IC50 [8]?
**A.** 380 nM

**Q.** And the Activity [9]?
**A.** inactive

**Q.** And the Activity [10]?
**A.** 38.14%

**Q.** What about the Activity [11] of the same compound?
**A.** Non-Toxic

**Q.** And the inhibition [12]?
**A.** inactive

**Q.** And the Activity [13]?
**A.** inactive

**Q.** What about the inhibition [14] of the same compound?
**A.** Active

**Q.** And the selectivity ratio [15]?
**A.** 66.7

**Q.** And the Activity [16]?
**A.** Active

**Q.** What about the Activity [17] of the same compound?
**A.** Dose-Dependent Effect

**Q.** What about the Activity [18] of the same compound?
**A.** Active

**Q.** What about the IC50 [19] of the same compound?
**A.** 47.2 µM

**Q.** What about the Activity [20] of the same compound?
**A.** Active

**Q.** And the Activity [21]?
**A.** inactive

**Q.** What about the Kd [22] of the same compound?
**A.** 154 nM

**Q.** And the Activity [23]?
**A.** 21.84%

**Q.** What about the IC50 [24] of the same compound?
**A.** 18.1 µM

**Q.** And the Activity [25]?
**A.** 9.81%

**Q.** And the Activity [26]?
**A.** Active

**Q.** And the Activity [27]?
**A.** 2.25%
